Laboratory results published in patent US20210100905A1, “APPLICATION OF COMPOUND OR TRADITIONAL CHINESE MEDICINE EXTRACT IN PREPARATION OF NUCLEIC ACID DELIVERY AGENT, AND RELATED PRODUCTS” (INSTITUTE OF BASIC MEDICAL SCIENCES CHINESE ACADEMY OF …, priority 2018, published 2021).

Experiments:
[1] = system: MRC-5 cell (lung fibroblast); experiment: In vitro delivery of lipid nucleic acid mixture, RT-qPCR of intracellular small RNA; assay type: cell-based; conditions: for delivery of double-stranded RNA into MRC-5 cells (real-time PCR) / delivery of HJT-sRNA-m7 single-stranded RNA into MRC-5 cells (real-time PCR): single lipid; for delivery of double-stranded RNA into MRC-5 cells (real-time PCR): boiling (heating) method, FIGS. 77, 91; for delivery of HJT-sRNA-m7 single-stranded RNA into MRC-5 cells (real-time PCR): boiling method, FIGS. 78, 92, 103
Summary of the method: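 A549 or MRC-5 cells seeded overnight, then given lipid–HJT-sRNA-m7 mixture (ether-evaporation or heated chloroform preparation) at 100 nM sRNA final for 12–24 h. After PBS washes, intracellular sRNA measured by stem-loop RT and SYBR Green qPCR; relative level by 2-ΔCt method with U6 reference.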

[2] = In vivo delivery of lipid nucleic acid mixture by gavage, RT-qPCR in blood and lung; design: species or system C57 mice; conditions: FIG. 14, 6 hours, whole blood and lung
Procedure: 1. Preparation of lipid nucleic acid mixture: the mixture of lipid No. 11 or No. 12 with nucleic acid, and the mixture of the lipid combination of No. 1/2/4/9/14/18/19/20/21/22/23/24/25/26/27/28/29/30/32, No. 3/8/10/11/12/13, and No. 6/15/16/17/31 with nucleic acid were prepared by reverse evaporation and boiling method (refer to steps 2.1-2.2).
2. Gavage were performed on 6-8 weeks old male C57 mice: 200 μl/aminal, grouped as follows:
3. Sample collection: 6 hours after gavage, mouse whole blood (500 μl) and lung (110 mg) were collected by 1.5 mL TRIzol-LS or 3 mL TRIzol, respectively, homogenized and then frozen under −80° C. for storage.
4. […]

[3] = system: Luciferase with the wild-type 3′UTR in the target gene; experiment: Luciferase reporter with 3′UTR of target gene after lipid-mediated small RNA delivery; assay type: cell-based; conditions: FIG. 13; wild-type 3′UTR

| Structure (SMILES) | delivery effect relative to that of RNAiMAX (real-time PCR) ([1]; double-stranded HJT-sRNA-m7, reverse evaporation method, FIG. 77) | delivery of double-stranded RNA into MRC-5 cells (real-time PCR) [1] | delivery of HJT-sRNA-m7 single-stranded RNA into MRC-5 cells (real-time PCR) [1] | entry of HJT-sRNA-m7 into blood and lung [2] | relative expression level of Luciferase with wild-type 3′UTR [3] | amount of HJT-sRNA-m7 that entered the cells (RT-qPCR) ([1]; Example 2-1, FIG. 33, double-stranded, 100 nM, 24 hours, boiling 100° C. 30 min, No. 38 series) | delivery effect relative to that of RNAiMAX (real-time PCR) ([1]; double-stranded RNA, heating method, FIG. 91) |
| --- | --- | --- | --- | --- | --- | --- | --- |
| CCCCCCCCCCCCCCCCCCC[C@@H](O)[C@@H](N)CO [No. 41, Sphinganine (d22:0)] | significantly higher than that of RNAiMAX | delivered double-stranded RNA into MRC-5 cells | delivered HJT-sRNA-m7 single-stranded RNA into A549 and MRC-5 cells | – | – | – | – |
| CCCCC/C=C\C/C=C\CCCCCCCC(=O)O[C@H](COC(=O)CCCCCCCCCCCCCCCCC)COP(=O)([O-])OCC[N+](C)(C)C [No. 11, trimethyl(2-{[(2R)-2-[(9Z, 12Z)-octadeca-9,12-dienoyloxy]-3-(octadecanoyloxy)propyl-phosphonato]oxy}ethyl) azanium] | – | – | – | could promote entry of small fragments of nucleic acids into the blood and lung | reduced the relative expression level of the Luciferase with the wild-type 3′UTR in the target gene | – | – |
| CCCCC/C=C\C/C=C\CCCCCCCC(=O)O[C@H](COC(=O)CCCCCCCCCCCCCCC)COP(=O)([O-])OCC[N+](C)(C)C [No. 12, (2-{[(2R)-3-(hexadecanoyloxy)-2-[(9Z,12Z)-octadeca-9,12-dienoyloxy]propylphosphonato]oxy}ethyl) trimethylazanium] | – | – | – | could promote entry of small fragments of nucleic acids into the blood and lung | reduced the relative expression level of the Luciferase with the wild-type 3′UTR in the target gene | – | – |
| CCCCCC/C=C\CCCCCCCC(=O)O[C@H](COC(=O)CCCCCCCCCCCCCCC)COP(=O)(O)OCCN [No. 38, (2-aminoethoxy) [(2R)-2-[(9Z)-hexadec-9-enoyloxy]-3-(hexadecanoyloxy)propoxy] phosphinic acid] | – | delivered double-stranded RNA into A549 and MRC-5 cells | the efficiency of delivery was much higher than that of RNAiMAX | – | – | effectively delivered nucleic acids into MRC-5 cells, showing an effect close to the transfection reagent RNAiMAX | about twice |
